From US9908873B2, “GPR40 agonists for the treatment of type II diabetes” (Janssen Pharmaceutica NV, priority 2015, dated 2018)
Several values for one entry are separate records, joined by “and”; a condition that tells them apart may be missing. Identical values can stand only once.

Target: T1, human GPR40 (Homo sapiens, UniProt O14842)
T1 construct: expressed in transfected cells
Assay: GPR40 Calcium Flux Assay
Format: cell-based
Conditions: transfected HEK293 cells stably expressing human GPR40; calcium-sensitive fluorescent dye; read-out: hGPR40 Ca^2+ Assay EC50
Experimental: Compounds were tested in a calcium flux assay using transfected HEK293 cells stably expressing either human GPR40 or rat GPR40. Human GPR40 expressing cells were cultured in DMEM-High Glucose media supplemented with 10% fetal bovine serum, 1×L-Glutamine, 1×Penicillin/Streptomycin and 500 μg/mL G418. Rat GPR40 expressing cells were cultured in DMEM-High Glucose media supplemented with 10% fetal bovine serum and 1 μg/mL puromycin. Cells were plated into poly-D-lysine coated 384-well plates and cultured overnight in a 37° C. humidified tissue culture incubator under 5% CO2/[…] atmosphere. On the day of the experiment, the culture media was replaced with assay buffer (HBSS, 20 mM HEPES, 0.1% BSA) and the cells incubated at 37° C. for 1 h. Calcium-sensitive fluorescent dye (Fluo 8 No-Wash Calcium Dye, ABD Bioquest) was then added and the cells incubated for another 30 min at 37° C. followed by 15 min at room temperature while protected from the light. The cell plate and a plate of diluted compounds of Formula (II) were loaded into a fluorescent plate reader that added compounds onto the cells while measuring the fluorescence intensity of each well. The plate reader recorded fluorescence intensity at 1 second intervals for 8 min and provided the data for analysis in an Excel format. EC50 values were calculated using Prism (GraphPad) software.

T1 sequence (O14842 whole entry): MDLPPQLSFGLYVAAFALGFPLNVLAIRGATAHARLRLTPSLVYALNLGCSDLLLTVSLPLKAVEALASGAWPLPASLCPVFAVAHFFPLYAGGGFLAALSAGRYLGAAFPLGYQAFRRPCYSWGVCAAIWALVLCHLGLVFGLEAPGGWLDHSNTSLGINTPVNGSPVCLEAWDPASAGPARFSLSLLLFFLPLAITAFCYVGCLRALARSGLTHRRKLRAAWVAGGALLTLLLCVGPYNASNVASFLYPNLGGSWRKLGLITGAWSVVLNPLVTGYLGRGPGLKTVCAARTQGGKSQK

| EC50 | SMILES |
| --- | --- |
| 1 nM | COc1ccc(F)c(-c2noc(CCc3cccc([C@@H](CC(=O)O)C4CC4)c3)c2C2CCCC2(C)C)c1 (stereo partly drawn) [Cpd 54, (3S)-3-cyclopropyl-3-[3-[2-[4-(2,2-dimethylcyclopentyl)-3-(2-fluoro-5-methoxy-phenyl)isoxazol-5-yl]ethyl]phenyl]propanoic acid] |
| 22 nM | COc1ccc(F)c(-c2noc(COc3cc(C(CC(=O)O)C4CC4)c(Cl)cn3)c2C2=CCCC2(C)C)c1 (stereo not shown) [Cpd 55, 3-[5-chloro-2-[[4-(5,5-dimethylcyclopenten-1-yl)-3-(2-fluoro-5-methoxy-phenyl)isoxazol-5-yl]methoxy]-4-pyridyl]-3-cyclopropyl-propanoic acid] |
| 23 nM | COc1ccc(F)c(-c2noc(/C=C/c3cccc([C@@H](CC(=O)O)C4CC4)c3)c2C2=CCCC2(C)C)c1 [Cpd 56, (3S)-3-cyclopropyl-3-[3-[(E)-2-[4-(5,5-dimethylcyclopenten-1-yl)-3-(2-fluoro-5-methoxy-phenyl)isoxazol-5-yl]vinyl]phenyl]propanoic acid] |
| 252 nM | COc1ccc(F)c(-c2noc(/C=C\c3cccc([C@@H](CC(=O)O)C4CC4)c3)c2C2=CCCC2(C)C)c1 [Cpd 59, (3S)-3-cyclopropyl-3-[3-[(Z)-2-[4-(5,5-dimethylcyclopenten-1-yl)-3-(2-fluoro-5-methoxy-phenyl)isoxazol-5-yl]vinyl]phenyl]propanoic acid] |
| 260 nM and 205 nM | COc1ccc(F)c(-c2nsc(COc3cccc([C@@H](CC(=O)O)C4CC4)c3)c2C2=CCCC2(C)C)c1 [Cpd 61, (3S)-3-cyclopropyl-3-[3-[[4-(5,5-dimethylcyclopenten-1-yl)-3-(2-fluoro-5-methoxy-phenyl)isothiazol-5-yl]methoxy]phenyl]propanoic acid] |

The remaining lines, values behind:

| SMILES | EC50 |
| --- | --- |
| COc1ccc(F)c(-c2noc(/C=C/c3cccc(C(CC(=O)O)C4CC4)c3)c2C2CC2)c1 (stereo in doubt) [Cpd 58, (3S)-3-cyclopropyl-3-[3-[(E)-2-[4-cyclopropyl-3-(2-fluoro-5-methoxy-phenyl)isoxazol-5-yl]vinyl]phenyl]propanoic acid] | 26 nM |
| COc1ccc(F)c(-c2noc(COc3cc(C(CC(=O)O)C4CC4)ccn3)c2C2=CCCC2(C)C)c1 (stereo not shown) [Cpd 53, 3-cyclopropyl-3-[2-[[4-(5,5-dimethylcyclopenten-1-yl)-3-(2-fluoro-5-methoxy-phenyl)isoxazol-5-yl]methoxy]-4-pyridyl]propanoic acid] | 1 nM |
| COc1ccc(F)c(-c2noc(CCc3cccc([C@@H](CC(=O)O)C4CC4)c3)c2C2CC2)c1 [Cpd 57, (3S)-3-cyclopropyl-3-[3-[2-[4-cyclopropyl-3-(2-fluoro-5-methoxy-phenyl)isoxazol-5-yl]ethyl]phenyl]propanoic acid] | 25 nM |
| COc1ccc(F)c(-c2cc(COc3cccc([C@@H](CC(=O)O)C4CC4)c3)sc2C(C)(C)C)c1 [Cpd 60, (3S)-3-[3-[[5-tert-butyl-4-(2-fluoro-5-methoxy-phenyl)-2-thienyl]methoxy]phenyl]-3-cyclopropyl-propanoic acid] | 56 nM and 29 nM |
| COc1ccc(F)c(-c2noc(COc3cccc([C@@H](CC(=O)O)C4CC4)c3)c2C2=CCCC2(C)C)c1 [Cpd 62, (3S)-3-cyclopropyl-3-[3-[[4-(5,5-dimethylcyclopenten-1-yl)-3-(2-fluoro-5-methoxy-phenyl)isoxazol-5-yl]methoxy]phenyl]propanoic acid] | 1 nM |
